Tests used:
[1] = refractive index (Na D-line) (dimensionless); xn = mol fraction of the nth substance listed; conditions: 101 kPa, Liquid, Standard Abbe refractometry
[2] = xn = mol fraction of the nth substance listed; conditions: 101 kPa, Liquid; for viscosity: Capillary tube (Ostwald / Ubbelohde) method

CCC(O)CC [3-pentanol] + CCC(C)=O
Conditions	mass density, 298.15 K [kg/m3]	mass density, 308.15 K [kg/m3]	mass density, 318.15 K [kg/m3]	refractive index, 298.15 K	refractive index, 308.15 K	refractive index, 318.15 K	viscosity, 298.15 K [mPa·s]	viscosity, 308.15 K [mPa·s]	viscosity, 318.15 K [mPa·s]
[1], x2 = 0	–	–	–	1.4047	1.4029	1.3981	–	–	–
[1], x2 = 0.0843	–	–	–	1.4032	1.4012	1.3965	–	–	–
[1], x2 = 0.1622	–	–	–	1.4016	1.3995	1.3949	–	–	–
[1], x2 = 0.2428	–	–	–	1.3999	1.3975	1.3929	–	–	–
[1], x2 = 0.3505	–	–	–	1.3971	1.3944	1.3901	–	–	–
[1], x2 = 0.4415	–	–	–	1.3945	1.3916	1.3873	–	–	–
[1], x2 = 0.5584	–	–	–	1.3908	1.3876	1.3835	–	–	–
[1], x2 = 0.6526	–	–	–	1.3876	1.3841	1.38	–	–	–
[1], x2 = 0.7399	–	–	–	1.3846	1.3806	1.3767	–	–	–
[1], x2 = 0.854	–	–	–	1.3803	1.376	1.372	–	–	–
[1], x2 = 0.9383	–	–	–	1.3773	1.3725	1.3684	–	–	–
[2], x2 = 0	815.79	806.91	797.66	–	–	–	4.625	2.864	1.902
[2], x2 = 0.0843	813.43	804.58	795.034	–	–	–	2.842	1.965	1.382
[2], x2 = 0.1622	811.5	802.6	792.888	–	–	–	2.007	1.476	0.9911
[2], x2 = 0.2428	809.72	800.57	790.723	–	–	–	1.494	1.151	0.7246
[2], x2 = 0.3505	807.45	798.07	788.175	–	–	–	1.084	0.869	0.5197
[2], x2 = 0.4415	805.82	796.23	786.285	–	–	–	0.86	0.717	0.417
[2], x2 = 0.5584	803.92	794.1	784.161	–	–	–	0.677	0.578	0.3306
[2], x2 = 0.6526	802.64	792.64	782.699	–	–	–	0.591	0.506	0.2938
[2], x2 = 0.7399	801.72	791.55	781.619	–	–	–	0.508	0.448	0.2919
[2], x2 = 0.854	800.8	790.31	780.165	–	–	–	0.445	0.396	0.297
[2], x2 = 0.9383	800.16	789.7	779.212	–	–	–	0.407	0.365	0.3106

From the NIST ThermoML archive (doi:10.1021/je901067c)
